The Deep4Chem optical property database

Assay: photoluminescence quantum yield (fraction); solvent given as SMILES

With `CN(C)c1ccc2cc(C3=[O+][B-](F)(F)OC(c4ccccc4)=C3)ccc2c1` as the compound, how does the photoluminescence quantum yield (in C1CCOC1) read?
The photoluminescence quantum yield was 0.1.

What about the photoluminescence quantum yield (in CC#N) of the same compound?
Its photoluminescence quantum yield is 0.007.

What about the photoluminescence quantum yield (in CC(C)=O) of the same compound?
The photoluminescence quantum yield was 0.01.

And the photoluminescence quantum yield (in CS(C)=O)?
The photoluminescence quantum yield was 0.005.

What about the photoluminescence quantum yield (in Cc1ccccc1) of the same compound?
Its photoluminescence quantum yield is 0.97.

And the photoluminescence quantum yield (in ClC(Cl)Cl)?
Its photoluminescence quantum yield is 0.9.

What about the photoluminescence quantum yield (in ClCCl) of the same compound?
Its photoluminescence quantum yield is 0.13.

What does the source list for `Cc1cc(C)c(B(c2c(C)cc(C)cc2C)c2c(C)cc(-n3c4ccc(N(c5ccccc5)c5ccccc5)cc4c4cc(N(c5ccccc5)c5ccccc5)ccc43)cc2C)c(C)c1`?
photoluminescence quantum yield (in Cc1ccccc1): 0.84; photoluminescence quantum yield (in O=P(c1ccccc1)(c1ccccc1)c1ccccc1Oc1ccccc1P(=O)(c1ccccc1)c1ccccc1): 1

Which results are given for `CN(C)c1ccc(/C=C/C=N/N=C/c2ccc3ccc4cccc5ccc2c3c45)cc1`?
photoluminescence quantum yield (in CC#N): 0.032; photoluminescence quantum yield (in CC(C)(C)O): 0.02; photoluminescence quantum yield (in CC(C)=O): 0.01; photoluminescence quantum yield (in CC(C)O): 0.015; photoluminescence quantum yield (in CCCCO): 0.018; photoluminescence quantum yield (in CO): 0.025; photoluminescence quantum yield (in CS(C)=O): 0.044; photoluminescence quantum yield (in ClC(Cl)Cl): 0.007; photoluminescence quantum yield (in ClCCl): 0.008; photoluminescence quantum yield (in O): 0.016

Which photoluminescence quantum yield (in C1CCOC1) does the source give for `Cc1cc(N(C)C)cc(C)c1/C=C/C=C/c1ccc(C#N)cc1` here?
The photoluminescence quantum yield was 0.087.

What about the photoluminescence quantum yield (in CC#N) of the same compound?
The photoluminescence quantum yield was 0.212.

And the photoluminescence quantum yield (in CCCCCC)?
Its photoluminescence quantum yield is 0.043.

What about the photoluminescence quantum yield (in CCCCOCCCC) of the same compound?
Its photoluminescence quantum yield is 0.061.

And the photoluminescence quantum yield (in CCO)?
Its photoluminescence quantum yield is 0.168.

What about the photoluminescence quantum yield (in CCOCC) of the same compound?
The photoluminescence quantum yield was 0.082.

With `CCOC(=O)c1c2c3c(ccc(C)c3c3cc4c(cc13)[Si](C)(C)O[Si]4(C)C)N(C)C2=O` as the compound, how does the photoluminescence quantum yield (in CC#N) read?
The photoluminescence quantum yield was 0.4.

For `CCCN1/C(=C/C=C(/C=C/C2=[N+](CCC)c3ccccc3C2(C)C)c2ccc3ccccc3n2)C(C)(C)c2ccccc21`, which photoluminescence quantum yield (in CO) is on record?
The photoluminescence quantum yield was 0.18.

What about the photoluminescence quantum yield (in CS(C)=O) of the same compound?
Its photoluminescence quantum yield is 0.37.

What about the photoluminescence quantum yield (in O) of the same compound?
The photoluminescence quantum yield was 0.01.

For `CC(C)(C)NC(=O)c1ccc(-c2ccccc2)c2ccc3c4ccccc4c4ccccc4c3c12`, which photoluminescence quantum yield (in ClCCl) is on record?
Its photoluminescence quantum yield is 0.08.

Which photoluminescence quantum yield (in C1CCOC1) does the source give for `CC(C)(C)c1ccc(C2=C(c3ccc(-n4c5ccc(C(C)(C)C)cc5c5cc(C(C)(C)C)ccc54)cc3)S(=O)(=O)c3c2sc(-c2ccc(-n4c5ccc(C(C)(C)C)cc5c5cc(C(C)(C)C)ccc54)cc2)c3-c2ccc(C(C)(C)C)cc2)cc1` here?
Its photoluminescence quantum yield is 0.164.

Which photoluminescence quantum yield (in Cc1ccccc1) does the source give for `CCCCCCCCCCCCn1cccc1/C=C/c1ccc(OCCCC)c2c(/C=C/c3cccn3CCCCCCCCCCCC)ccc(OCCCC)c12` here?
The photoluminescence quantum yield was 0.35.

What does the source list for `CN(C)c1ccc(C#Cc2ccc(C#N)cc2)cc1`?
photoluminescence quantum yield (in C1CCCCC1): 0.455; photoluminescence quantum yield (in C1CCOC1): 0.4; photoluminescence quantum yield (in C1COCCO1): 0.066; photoluminescence quantum yield (in CC1CCCO1): 0.099; photoluminescence quantum yield (in CC#N): 0.024; photoluminescence quantum yield (in CC(C)=O): 0.49; photoluminescence quantum yield (in CC(C)CC(C)(C)C): 0.032; photoluminescence quantum yield (in CC(C)O): 0.006; photoluminescence quantum yield (in CCCCCCCCCCCCCCCC): 0.3; photoluminescence quantum yield (in CCCCCCCCCCCCCCCCCl): 0.33; photoluminescence quantum yield (in CCOC(C)=O): 0.33; photoluminescence quantum yield (in CCOCC): 0.29; photoluminescence quantum yield (in CN(C)C=O): 0.17; photoluminescence quantum yield (in CS(C)=O): 0.029; photoluminescence quantum yield (in Cc1ccccc1): 0.38

Which photoluminescence quantum yield (in ClC(Cl)Cl) does the source give for `O=Cc1ccc(Oc2ccc3c4c(cccc24)C(=O)N(CCO)C3=O)cc1` here?
Its photoluminescence quantum yield is 0.19.

Which results are given for `C[Si](C)(C)[Si](C)(C)c1c2ccccc2cc2ccccc12`?
photoluminescence quantum yield (in C1CCCCC1): 0.92; photoluminescence quantum yield (in CC#N): 0.65

What does the source list for `c1ccc(C(=C(c2ccccc2)c2ccc(-c3nc4c(-c5ccc(C(=C(c6ccccc6)c6ccccc6)c6ccccc6)cc5)sc(-c5ccc(C(=C(c6ccccc6)c6ccccc6)c6ccccc6)cc5)c4nc3-c3ccc(C(=C(c4ccccc4)c4ccccc4)c4ccccc4)cc3)cc2)c2ccccc2)cc1`?
photoluminescence quantum yield (in Cc1ccccc1): 0.267; photoluminescence quantum yield (in ClCCl): 0.109

With `C(C#Cc1ccc2ccc3cccc4ccc1c2c34)#Cc1cccc2ccccc12` as the compound, how does the photoluminescence quantum yield (in C1CCCCC1) read?
Its photoluminescence quantum yield is 0.84.

What about the photoluminescence quantum yield (in CC#N) of the same compound?
The photoluminescence quantum yield was 0.73.

And the photoluminescence quantum yield (in CO)?
Its photoluminescence quantum yield is 0.55.

And the photoluminescence quantum yield (in ClCCl)?
The photoluminescence quantum yield was 0.64.

For `CCN(CC)c1ccc2cc(C#N)/c(=N\C(=O)c3ccc(F)cc3)oc2c1`, which photoluminescence quantum yield (in CCO) is on record?
The photoluminescence quantum yield was 0.3.

And the photoluminescence quantum yield (in ClCCl)?
Its photoluminescence quantum yield is 0.83.

What does the source list for `O=Cc1ccc(-c2ccc(-c3nc4ccccc4s3)c(O)c2)s1`?
photoluminescence quantum yield (in CCO): 0.0424; photoluminescence quantum yield (in ClCCl): 0.0634; photoluminescence quantum yield (in O): 0.07

With `Cc1ccc(-c2nc(-c3ccc(-c4nc(-c5ccc(C)cc5)c(-c5ccc(C)cc5)[nH]4)cc3)[nH]c2-c2ccc(C)cc2)cc1` as the compound, how does the photoluminescence quantum yield (in CS(C)=O) read?
Its photoluminescence quantum yield is 0.96.

With `CN1/C(=C\C=C\C2=C3C=CC(c4ccccc4)=[N+]3[B-](F)(F)n3c2ccc3-c2ccccc2)Sc2ccccc21` as the compound, how does the photoluminescence quantum yield (in CC#N) read?
The photoluminescence quantum yield was 0.1.

Which photoluminescence quantum yield (in ClCCl) does the source give for `COc1cc(-c2cnc(-c3ccncc3)o2)cc(OC)c1OC` here?
The photoluminescence quantum yield was 0.76.

Which photoluminescence quantum yield (in CO) does the source give for `CCC1=C(C)C(=O)n2c1cc1c(CCC(=O)OC)c(C)c(C)n1c2=O` here?
Its photoluminescence quantum yield is 0.82.

What about the photoluminescence quantum yield (in CS(C)=O) of the same compound?
Its photoluminescence quantum yield is 1.

And the photoluminescence quantum yield (in ClC(Cl)Cl)?
The photoluminescence quantum yield was 0.95.

What about the photoluminescence quantum yield (in c1ccccc1) of the same compound?
Its photoluminescence quantum yield is 1.
